Source: patent US11820737B2, “Generation of peroxyhydroxycarboxylic acid and the use thereof” (ECOLAB USA INC., priority 2020, dated 2023)
Where “and” joins values, the source holds several entries; their conditions need not be identical. Equal values may be shown once.

How the values were obtained:
[1] = test system: Campylobacter jejuni ATCC 33291; test: Food contact suspension test (FCS, AOAC 960.09); type: cell-based; details: for concentration required for efficacy: 75° F., FIG. 6; for Avg. Log10 Growth / Log10 Reduction: 30 second
Description: Antimicrobial Efficacy of Peroxylactic Acid. The antimicrobial efficacy of generated peroxylactic acid was evaluated following the US EPA food contact suspension test protocol (AOAC 960.09) against Staphylococcus aureus and Escherichia coli according to the conditions set forth in Table 7.
Additional efficacy testing against Campylobacter jejuni ATCC 33291 as described in Table 10 was completed to compare efficacy at 75° F. of lactic acid, peroxylactic acid (PLA) and peroxyacetic acid (PAA). […] In particular, in comparison to lactic acid substantially lower concentrations are required (25 ppm PLA instead of approximately 5000 ppm lactic acid).
Beneficially, the concentration of peroxylactic acid required for micro efficacy are substantially lower than lactic acid and the lactic acid which is formed upon degradation of the peroxylactic acid is further beneficial for micro efficacy.

[2] = test system: Salmonella, E. coli, Campylobacter and Listeria; test: Food contact suspension test (AOAC 960.09), FIG. 7; type: cell-based; details: 30 seconds
Description: (§1) Additional antimicrobial efficacy of generated peroxylactic acid was evaluated following the US EPA food contact suspension test protocol (AOAC 960.09) against Salmonella, E. coli, Campylobacter and Listeria according to the conditions set forth in Table 16.
In addition at 100 ppm PLA provides efficacy of greater than 7 log reduction against Listeria, whereas peroxyacetic acid is known to require at least about 180 ppm for greater than 7 log reduction against Listeria.

[3] = test system: Listeria monocytogenes ATCC 49594; test: Food contact suspension test (FCS, AOAC 960.09); type: cell-based; details: 30 second
Description: as §1

[4] = Kinetic instability of peroxylactic acid generated through equilibrium reaction of lactic acid and hydrogen peroxide (FIG. 4); type: physicochemical; details: generated through equilibrium between lactic acid and H2O2, FIG. 4
Description: Comparison of Lactide Ester to Lactic Acid Precursor to Generate Peroxylactic Acid. The equilibrium reaction using lactic acid reagent for generating perlactic acid was performed to show the distinct advantages of the methods of generation according to the invention. […] It is also known that the reaction results in additional byproducts—which may not be suitable for various applications of use.
This makes it commercially not feasible to deliver the compositions for end application at customer locations.

| Structure (SMILES) | concentration required for efficacy [1] | low concentration dose providing efficacy against various microbes [2] [ppm] | Avg. Log10 Growth ([3]; 50 ppm PLA) [Log10] | CFU/mL ([3]; 50 ppm PLA) | Log10 Growth ([3]; 50 ppm PLA) | Log10 Reduction ([3]; 50 ppm PLA) [Log10] | Avg. Log10 Growth ([3]; 100 ppm PLA) [Log10] | Log10 Reduction ([3]; 100 ppm PLA) [Log10] | Avg. Log10 Growth ([3]; 150 ppm PLA) [Log10] | Log10 Reduction ([3]; 150 ppm PLA) [Log10] | Avg. Log10 Growth ([1]; 25 ppm PLA) [Log10] | Log10 Reduction ([1]; 25 ppm PLA) [Log10] | Avg. Log10 Growth ([1]; 50 ppm PLA) [Log10] | Log10 Reduction ([1]; 50 ppm PLA) [Log10] | Avg. Log10 Growth ([1]; 75ppm PLA) [Log10] | Log10 Reduction ([1]; 75ppm PLA) [Log10] | stability of generated perlactic acid [4] |
| --- | --- | --- | --- | --- | --- | --- | --- | --- | --- | --- | --- | --- | --- | --- | --- | --- | --- |
| CC(O)C(=O)O (stereo not drawn) [Lactic Acid, reference compound] | approximately 5000 ppm | – | – | – | – | – | – | – | – | – | – | – | – | – | – | – | – |
| CC(O)C(=O)OO (stereo not drawn) [PLA, peroxylactic acid] | 25 ppm | 25 | 5.84 | 6.90E+05 CFU/mL and 6.80E+05 CFU/mL | 5.84 Log10 and 5.83 Log10 | 2.23 | <1.00 | >7.06 | <1.00 | >7.06 | <1.00 | >7.06 | <1.00 | >7.06 | <1.00 | >7.06 | very unstable |
